Reference: patent US20220064238A1, “Methods And Compositions For Modifying Transcription Factor Activity by Targeting The Human Mediator Complex Using Cell Penetrating Memetic Peptides And Methods of Treating Cancer Using The Same” (The Regents of the University of Colorado, a body corporate, priority 2020, published 2022)
Bridge positions count the residues as written; N and C are the ends. Square brackets hold non-standard residues; d marks the D form. Peptide text beside a SMILES is read from it. PEG6 = NCCOCCOCCOCCOCCOCCOCCC(=O)O; R8 = C=CCCCCCC[C@@](C)(N)C(=O)O; S5 = C=CCCC[C@](C)(N)C(=O)O

Experiments:
[1] = tested on: HCT116 cells; assay: RNA-Seq in HCT116 cells, non-p53 genes / genome-wide transcription; type: cell-based, human; conditions: DMSO control cells, no Nutlin
Excerpt: An expectation of our experimental strategy was that the bivalent peptide, which was designed based upon p53AD structure, would selectively block p53 function. […] RNA-Seq experiments in HCT116 cells represented a more rigorous test for selectivity. HCT116 cells express hundreds of sequence-specific, DNA-binding TFs, including high level expression of TFs that define the cell lineage. For HCT116 cells, these TFs include SREBF1, ELF3, JUNB, NR2F1, and MYC. To assess the general impact of the bivalent peptide on pol II transcription, we compared RNA-Seq data from DMSO control cells (i.e. no Nutlin treatment) in the presence/absence of bivalent peptide.
Electroporation of bivalent peptide into HCT116 cells (RNA-Seq experiment 1): Two 6-well plates (HCT116 cells) were grown to about 80% confluency. Cells were then trypsinized, washed with PBS, and resuspended in 150 μL Neon Buffer R. The cells were then split into two groups: No peptide and 10 μM peptide. The cells were then drawn into a 10 μL Neon pipet tip, electroporated and ejected into 2 mL of McCoy's 5A media without antibiotic. For each experiment, two cell electroporation aliquots were added to media containing either 0.1% DMSO (control) or 10 μM Nutlin-3a (in DMSO, to a final concentration of 0.1%). […]

[2] = tested on: SJSA cells; assay: SJSA cell death after Nutlin treatment (CellTiter-Glo); type: cell-based; conditions: 24-hour Nutlin 10 μM
Description: (§1) Experimental time frame for RNA-Seq experiments: In a series of experiments in SJSA cells, we initially tested whether the bivalent peptide could cause a phenotypic change. […] We next determined that a 6-hour Nutlin treatment time was the shortest that would still trigger significant SJSA cell death within 24-48 hours. However, we obtained similar results with 6-hour (or 12-hour) Nutlin treatment times (±bivalent peptide). We then tested the prospect of RNA-Seq experiments, in hopes that gene expression changes and shorter time frames would allow an assessment of bivalent peptide effects. Here, we used HCT116 cells, which show strong transcriptional response to Nutlin (Allen et al., 2014). For RNA-Seq experiments, we needed a time frame long enough to allow accumulation of p53 target gene mRNAs but short enough to enable maximum activity of the bivalent peptide (e.g. prior to its secretion, export, and/or degradation). Using RT-qPCR assays, we confirmed that a 3-hour Nutlin treatment was a minimum amount of time to reliably detect induction of p53 target genes. […] RNA-Seq data have been uploaded on GEO: GSE135870.

[3] = tested on: p53-target genes in HCT116 cells; assay: RT-qPCR of p53 target genes in HCT116 cells; type: cell-based, human; conditions: HCT116, 3-hour Nutlin treatment
Description: as §1

Question: Which results are given for CC[C@H](C)[C@H](NC(=O)[C@H](CC(=O)O)NC(=O)[C@H](CC(=O)O)NC(=O)[C@@H]1CCCN1C(=O)[C@H](CO)NC(=O)[C@H](CC(C)C)NC(=O)CCOCCOCCOCCOCCOCCOCCNC(=O)[C@H](CCCNC(=N)N)NC(=O)[C@H](CCCNC(=N)N)NC(=O)[C@]1(C)CCCC=CCCCCCC[C@@](C)(NC(=O)[C@H](Cc2ccccc2)NC(=O)[C@H](CCCNC(=N)N)NC(=O)[C@H](CCC(=O)O)NC(=O)[C@H](CCC(N)=O)NC(=O)[C@H](CO)NC(=O)[C@H](CCCNC(=N)N)NC(C)=O)C(=O)N[C@@H](CC(=O)O)C(=O)N[C@@H](CC(C)C)C(=O)N[C@@H](Cc2c[nH]c3ccccc23)C(=O)N[C@@H](CCCCN)C(=O)N[C@@H](CCCNC(=N)N)C(=O)N[C@@H](CC(C)C)C(=O)N1)C(=O)N[C@@H](CCC(=O)O)C(=O)N[C@@H](CCC(N)=O)C(=O)N[C@@H](Cc1c[nH]c2ccccc12)C(=O)N[C@@H](Cc1ccccc1)C(=O)N[C@H](C(=O)N[C@@H](CCC(=O)O)C(=O)N[C@@H](CC(=O)O)C(N)=O)[C@@H](C)O [bivalent peptide] (Ac-RSQERF[R8]DLWKRL[S5]RR[PEG6]LSPDDIEQWFTED-NH2; staple 7-14; N-terminus assumed)?
Answer: effect on pol II transcription genome-wide [1]: minor effect on pol II transcription; effect on cell death after Nutlin treatment [2]: no significant effect; activation of p53-target genes by RT-qPCR [3]: blocking activation of p53-target genes
